{"source": "patent US20180353565A1", "about": "“PHARMACEUTICAL FORMULATIONS AND THEIR USE FOR THE TREATMENT OF RETINITIS PIGMENTOSA” (KALEYDE PHARMACEUTICALS AG, priority 2016, published 2018)", "key": {"[1]": {"system": "RCS/Kyo rat (Royal College of Surgeons rat)", "assay": "Efficacy in RCS/KYO rats by intravitreal or subcutaneous administration (retinal and ONL thickness under the microscope)", "type": "in vivo", "conditions": "for Retinal thickness % of control / Thickness of ONL % of control / Thickness of ONL (outer nuclear layer): age 49 days; for Retinal thickness: measured at age 49 days", "excerpt": "The RCS/Kyo rat (Royal College of Surgeons rat) represents the most commonly used model in the study of this eye disease. RCS rats present retinal degeneration that makes them the ideal model for the study of this disease. […] The epithelial cells of the retina in these animals are unable to ingest the […] photoreceptor cells, and those photoreceptors therefore die.\n45 male and female RCS/Kyo rats, aged 14/21 days, were employed, using the tetrapeptide Ac-Arg-Aib-Arg-α(Me)Phe-NH2, formulated as reported in example 1A, at the concentration of 1.2 mg/mL for intravitreal injection, or 7.6 mg/mL for subcutaneous injection.\nThe treatment regimen used is set out below:\nAfter euthanasia of the rats at the age of 49 days, the thickness of the retina in the various groups was measured under the microscope:\nThe thickness of the outer layer of granules (outer nuclear layer, ONL, cell body of cones and rods) was also measured."}, "[2]": {"assay": "Tissue distribution at Tmax after single subcutaneous administration (LC-MS)", "type": "in vivo, Sprague-Dawley rats", "conditions": "at Tmax after 16.6 mg/kg s.c., rat", "description": "(§1) 10 Male Sprague-Dawley rats were used. The rats were divided into two groups of 5 for determination of plasma pharmacokinetics and tissue distribution, by single subcutaneous administration at the dose of 16.6 mg/kg in a volume of 1 mL/kg. Blood samples were taken after 0.25, 0.5, 1, 2, 4, 6, 8 and 24 hours; subsequently, in the second group of rats, tissue samples were taken at Tmax. The kinetic equation, Cmax, Tmax, plasma half-life and AUC were determined. The concentrations were measured by LC-MS.\nAs will be seen, the kidney is the organ with the highest values compared with the other tissues. However, in the eyes, which represent the target tissue, the peptide is present with a tissue plasma ratio of about 5."}, "[3]": {"assay": "Plasma pharmacokinetics after single subcutaneous administration (LC-MS)", "type": "in vivo, Sprague-Dawley rats", "conditions": "Dose 16.6 mg/kg s.c.", "description": "as §1"}, "[4]": {"system": "mice with oxygen-induced retinopathy", "conditions": "cited from earlier work"}, "[5]": {"conditions": "group S-ivt-sd-t: intravitreal, therapeutic, single dose 4 μg at day 22"}, "[6]": {"conditions": "group S-sc-rd-p: subcutaneous, preventive, 1800 μg from day 14, 6 times a week for 5 weeks"}, "[7]": {"conditions": "group S-sc-rd-t: subcutaneous, therapeutic, 1800 μg from day 22, 6 times a week for 4 weeks"}, "[8]": {"conditions": "male, Sprague-Dawley, sc, rat plasma"}, "[9]": {"conditions": "intravitreal injection, OIR mice"}}, "note": "Where a SMILES comes first, the peptide text is derived from it. [ ]: non-standard residue; d: D form. αMeF = C[C@](N)(Cc1ccccc1)C(=O)O; Aib = CC(C)(N)C(=O)O"}
{"compound": "CC(=O)N[C@@H](CCCNC(=N)N)C(=O)NC(C)(C)C(=O)N[C@@H](CCCNC(=N)N)C(=O)N[C@@](C)(Cc1ccccc1)C(N)=O", "note": "[Ac-Arg-Aib-Arg-α(Me)Phe-NH2] (Ac-R[Aib]R[αMeF]-NH2)", "values": [{"measurement": "Effect on retinal structure", "setting": "[1]; RCS/KYO rats", "value": "restore nearly all the strongly deteriorated retinal structure"}, {"measurement": "Change of retinal thickness", "setting": "[1]; all the treated groups, preventive treatment to a lesser extent", "value": "considerable increase in retinal thickness"}, {"measurement": "Retinal thickness % of control", "setting": "[1]; [5]", "value": "110 % of control"}, {"measurement": "Thickness of ONL % of control", "setting": "[1]; [5]", "value": "134 % of control"}, {"measurement": "Thickness of ONL (outer nuclear layer)", "setting": "[1]; [5]", "value": 12.09, "unit": "μm"}, {"measurement": "Retinal thickness", "setting": "[1]; group S-ivt-sd-t: intravitreal, therapeutic, single dose 4 μg at day 22 after birth", "value": 132.08, "unit": "μm"}, {"measurement": "Retinal thickness % of control", "setting": "[1]; [6]", "value": "130 % of control"}, {"measurement": "Thickness of ONL % of control", "setting": "[1]; [6]", "value": "196 % of control"}, {"measurement": "Thickness of ONL (outer nuclear layer)", "setting": "[1]; [6]", "value": 17.64, "unit": "μm"}, {"measurement": "Retinal thickness", "setting": "[1]; [6]", "value": 155.25, "unit": "μm"}, {"measurement": "Retinal thickness % of control", "setting": "[1]; [7]", "value": "153 % of control"}, {"measurement": "Thickness of ONL % of control", "setting": "[1]; [7]", "value": "196 % of control"}, {"measurement": "Thickness of ONL (outer nuclear layer)", "setting": "[1]; [7]", "value": 17.62, "unit": "μm"}, {"measurement": "Retinal thickness", "setting": "[1]; [7]", "value": 182.67, "unit": "μm"}, {"measurement": "Change of ONL thickness", "setting": "[1]; repeated subcutaneous doses", "value": "double the thickness of the layer"}, {"measurement": "Increase of the photoreceptor layer", "setting": "[1]; single dose of 4 μg per eye", "value": 34, "unit": "%"}, {"measurement": "Tissue plasma ratio, eyes", "setting": "[2]", "value": "about 5"}, {"measurement": "Kelim", "setting": "[3]; rat plasma", "value": "0.309 ± 0.029", "unit": "h⁻¹"}, {"measurement": "Tmax", "setting": "[3]; male, Sprague-Dawley, rat, plasma, sc, 16.6 mg/kg", "value": "~2", "unit": "h"}, {"measurement": "AUC(0-inf)", "setting": "[3]; [8]", "value": "39300 ± 4010", "unit": "ng·h/mL"}, {"measurement": "AUC(0-t)", "setting": "[3]; [8]", "value": "39300 ± 3990", "unit": "ng·h/mL"}, {"measurement": "Cmax", "setting": "[3]; [8]", "value": "5910 ± 1180", "unit": "ng/mL"}, {"measurement": "half-life", "setting": "[3]; [8]", "value": "2.26 ± 0.226", "unit": "h"}, {"measurement": "Effect on inflammatory markers", "setting": "[4]; [9]", "value": "reducing the anti-inflammatory markers"}, {"measurement": "Effect on retinal neovascularization", "setting": "[4]; [9]", "value": "reducing retinal neovascularization"}, {"measurement": "Effect on the blood-retinal barrier", "setting": "[4]; [9]", "value": "repairing dysfunctions of the blood-retinal barrier"}, {"measurement": "Effect on the structure of the retina (words, literature)", "setting": "[4]; reported in IOVS (2015), 56(4) 2392-2407", "value": "does not modify the structure of the retina"}]}
